{"source": "patent US20240390372A1", "about": "“METHODS OF TREATING HAIR-LOSS DISORDERS WITH TYK2 INHIBITORS” (Bristol-Myers Squibb Company, priority 2021, published 2024)", "key": {"[1]": {"system": "microdissected hair follicles from human scalp", "experiment": "Prophylactic assay: pre-treatment before IL-12+IL-18, MHC class I and II levels", "type": "cell-based", "description": "To address the role of IL-12 in AA pathobiology and its potential as a therapeutic target, microdissected hair follicles from human scalp were cultured in the presence of IL-12 (3 ng/mL) and IL-18 (20 ng/mL) and in the presence or absence of a selective allosteric TYK2 inhibitor, the compound of Formula (II) (300 nM). IFNγ (75 UI/mL) was used as a positive control to induce immune privilege (IP) collapse, and tofacitinib was used as a positive control for blocking IFNγ signaling. Hair follicle immune privilege (HF-IP) was assessed by quantitative immunohistomorphometry of MHC class I, of MHC class II, and of MHC class chain-related protein A and MHC class chain-related protein B (MICA/B).\nHair follicles were pre-treated with the compound having the structure of Formula (II) (denoted “BMS” in the figures), followed by the addition of IL-12 and IL-18, in a prophylactic assay. Tofacitinib was used as a control, for comparison. For this assay, each group included 19-40 hair follicles, obtained from 3-5 independent healthy donors. The groups were treated as follows: with vehicle, with the compound of Formula (II) (300 nM), or with tofacitinib (400 nM) for 5-6 days; on day 2 of culture, vehicle, or IL-12 (3 ng/ml) and IL-18 (20 ng/mL) were added. Levels of MHC class I and of MHC class II were assessed as described above, and FIGS. 17-22 provide the results. The graphs in FIGS. 17-20 show mean±SEM and results of the Dunn's multiple comparison test (*p<0.05; **p<0.01; ****p<0.0001). FIGS. 21 and 22 show staining of MHC-I and MHC-II, respectively, in hair follicles (scale bar=100 μm)."}, "[2]": {"system": "microdissected hair follicles from human scalp", "experiment": "Therapeutic assay: compound added after IL-12+IL-18, T cell and NK cell expansion (CD3/CD56 immunostaining)", "type": "cell-based", "conditions": "300 nM added on day 2 of IL-12+IL-18 culture", "description": "To assess whether TYK2 inhibition can block ongoing T cell and NK cell expansion, hair follicles were first incubated with vehicle, or with IL-12+IL-18, followed by the addition of the compound of Formula (II) or of tofacitinib. Specifically, 24-33 hair follicles, obtained from 3-4 independent healthy donors, were treated with vehicle, or with IL-12 (3 ng/ml) and IL-18 (20 ng/ml), for 5-6 days. On day 2 of culture, the compound of Formula (II) (300 nM) or tofacitinib (400 nM) was added. T cell expansion and NK cell expansion were assessed by immunostaining for CD3 (T cells) or CD56 (NK cells). The graphs in FIGS. 34-37 show mean±SEM, with p-values from the Dunn's multiple comparison test (*p<0.05; **p<0.01; ***p<0.001; ****p<0.0001). FIG. 38 provides images of staining for CD3 and CD56 in hair follicles (scale bar=50 μm)."}, "[3]": {"system": "ex vivo cultured hair follicles", "experiment": "IFNγ secretion into the medium of ex vivo cultured hair follicles treated with IL-12+IL-18 (ELISA; prophylactic and therapeutic assays)", "type": "cell-based, human", "conditions": "for IFNγ release into the culture medium: hair follicles treated with IL-12+IL-18, assay format not given", "description": "(§1) Resident immune cell populations were assessed by quantification of CD3-positive cells and of CD56-positive cells. Gene expression of treated hair follicles was assessed using whole transcriptome analysis. IFNγ production was quantified by enzyme-linked immunosorbent assay (R&D systems). IL-12RB2-expressing cells were evaluated in healthy donors, acute AA patients, and chronic AA patients using immunohistomorphometry.\nThe effect of TYK2 inhibition on IFNγ production by hair follicles was also assessed. Specifically, two assays were performed to examine how TYK2 inhibition affects IFNγ secretion into the medium of ex vivo cultured hair follicles treated with IL-12+IL-18. In the prophylactic assay, hair follicles were pre-treated with the compound of Formula (II) or with tofacitinib, and then were cultured in the presence of IL-12+IL-18, after which IFNγ in the culture medium was measured. In the therapeutic assay, hair follicles were initially treated with IL-12±IL-18; then the compound of Formula (II) or tofacitinib was added and the culture continued, after which IFNγ in the culture medium was measured. The data in FIGS. 39 and 40 are based on the amount of IFNγ measured in pooled culture medium from n=8 hair follicles per group, obtained from 1-2 healthy donors. The graphs show mean±SEM from technical duplicates."}, "[4]": {"system": "microdissected hair follicles from human scalp", "experiment": "Prophylactic assay: pre-treatment before IL-12+IL-18, CD3+ T cell and CD56+ NK cell quantification", "type": "cell-based", "conditions": "pre-treatment 300 nM, 5-6 days; IL-12+IL-18 added on day 2", "description": "as §1\nThe effect of pre-treatment with the compound of Formula (II) on T cell and NK cell expansion following IL-12 and IL-18 stimulation was also examined. 22-40 hair follicles, obtained from 4-5 independent healthy donors, were incubated with vehicle, with the compound of Formula (II) (300 nM), or with tofacitinib (400 nM) for 5-6 days. On day 2 of culture, vehicle, or IL-12 (3 ng/ml) and IL-18 (20 ng/mL) were added. Resident immune cell populations were assessed by quantification of CD3-positive cells and of CD56-positive cells. FIGS. 23-27 provide the results. The graphs in FIGS. 23-26 show mean±SEM and results of the Dunn's multiple comparison test (*p<0.05; ***p<0.001). […] Pre-treatment with the compound of Formula (II) prevented an elevation of CD3+ T cell frequency and of CD56+ NK cell frequency, consistent with the results above."}, "[5]": {"system": "microdissected hair follicles from human scalp", "experiment": "Therapeutic assay: compound added after IL-12+IL-18-induced immune privilege collapse, MHC class I and II expression", "type": "cell-based", "description": "The above assays were adapted to investigate whether TYK2 inhibition can inhibit ongoing IL-12+IL-18-mediated hair follicle immune privilege collapse, and thus whether TYK2 inhibition is a viable therapeutic strategy for treating alopecia areata. In these assays, immune privilege collapse was first induced by treatment with IL-12+IL-18, followed by the addition of the compound of Formula (II).\nTo assess whether TYK2 inhibition could restore hair follicle immune privilege, 21-31 hair follicles, obtained from 3-4 independent healthy donors, were cultured with vehicle, or with IL-12 (3 ng/mL) and IL-18 (20 ng/ml), for 5-6 days. On day 2 of culture, the compound of Formula (II) (300 nM) or tofacitinib (400 nM) was added until day 5-6. MHC class I expression and MHC class II expression were measured, as was done previously. The graphs in FIGS. 28-31 show mean±SEM, with p-values from the Dunn's multiple comparison test (*p<0.05; **p<0.01; ***p<0.001; ****p<0.0001). FIGS. 32 and 33 show staining of MHC-I and MHC-II, respectively, in hair follicles (scale bar=100 μm). […] As discussed above, MHC class I and II are markers of immune privilege collapse."}, "[6]": {"conditions": "300 nM for 5-6 days, IL-12 3 ng/mL and IL-18 20 ng/mL added on day 2"}, "[7]": {"conditions": "300 nM added on day 2 until day 5-6 of IL-12+IL-18 culture"}, "[8]": {"conditions": "400 nM added on day 2 until day 5-6 of IL-12+IL-18 culture"}}, "data": [{"smiles": "[2H]C([2H])([2H])NC(=O)c1cnc(NC(=O)C2CC2)cc1Nc1cccc(-c2ncc(F)cn2)c1OC", "note": "[compound of Formula (II)]", "values": [{"measurement": "IL-12+IL-18-mediated upregulation of MHC class I in the outer root sheath", "setting": "[1]; [6]", "value": "prevented"}, {"measurement": "IL-12+IL-18-mediated upregulation of MHC class II in the outer root sheath", "setting": "[1]; [6]", "value": "prevented"}, {"measurement": "effect on MHC class I and II upregulation compared with tofacitinib", "setting": "[1]; compound 300 nM versus tofacitinib 400 nM, prophylactic", "value": "greater than the effect observed with tofacitinib"}, {"measurement": "IL-12 and IL-18-induced immune privilege collapse of hair follicles", "setting": "[1]; pre-treatment, 300 nM", "value": "prevented"}, {"measurement": "NK cell expansion induced by IL-12 and IL-18 (hair follicle epithelium and mesenchyme)", "setting": "[2]", "value": "reversed"}, {"measurement": "T cell expansion induced by IL-12 and IL-18 (hair follicle epithelium and mesenchyme)", "setting": "[2]", "value": "reversed"}, {"measurement": "IFNγ release into the culture medium", "setting": "[3]", "value": "inhibiting IFNγ release"}, {"measurement": "elevation of CD3+ T cell frequency", "setting": "[4]", "value": "prevented"}, {"measurement": "elevation of CD56+ NK cell frequency", "setting": "[4]", "value": "prevented"}, {"measurement": "IL-12+IL-18-induced expression of MHC class I", "setting": "[5]; [7]", "value": "significantly reduced"}, {"measurement": "IL-12+IL-18-induced expression of MHC class II", "setting": "[5]; [7]", "value": "significantly reduced"}]}, {"smiles": "C[C@@H]1CCN(C(=O)CC#N)C[C@@H]1N(C)c1ncnc2[nH]ccc12", "note": "[tofacitinib, reference compound]", "values": [{"measurement": "IFNγ release into the culture medium", "setting": "[3]", "value": "did not decrease"}, {"measurement": "restoration of IFNγ secretion to baseline", "setting": "[3]; therapeutic assay: IL-12+IL-18 first, then compound added", "value": "such restoration was not observed"}, {"measurement": "IL-12+IL-18-induced expression of MHC class I", "setting": "[5]; [8]", "value": "significantly reduced"}, {"measurement": "IL-12+IL-18-induced expression of MHC class II", "setting": "[5]; [8]", "value": "significantly reduced"}]}]}
